# According to article PMC6934184, “Selective DNA-PKcs inhibition extends the therapeutic index of localized radiotherapy and chemotherapy” (The Journal of Clinical Investigation, 2019):
# What was measured:
# [1] = system: HCT116 p53 null (-/-) cells; assay: caspase activity after irradiation; type: cell-based, Human; conditions: 1 µM, 1 hour prior to 2 Gy; 72 hours
# Procedure: (§1) Supplemental Figure 19. […] Fold […]
# (§2) caspase activity in HCT116 parental and p53 null (-/-) cells 72 hours following pre-treatment with NU5455 (1 µM) or DMSO for 1 hour prior to irradiation (0 or 2 Gy). Fold caspase activity was normalized to cell density determined by SRB staining. Data represent the mean ± SEM from three independent experiments. NS = not significant, **** P < 0.0001 (2-way ANOVA).
# HCT116 parental cells = assay: caspase activity after irradiation; type: cell-based, Human; conditions: 1 µM, 1 hour prior to 2 Gy; 72 hours
# Procedure: as §1, §2
compound,measurement,setting,value
CN(C(=O)CN1CCOCC1)c1ccc2sc3c(-c4cccc5c(=O)cc(N6CC7CCC(C6)O7)oc45)cccc3c2c1 [NU5455],radiation-induced apoptosis (fold caspase activity),[1],increases radiation-induced apoptosis
same,radiation-induced apoptosis (fold caspase activity),HCT116 parental cells,increases radiation-induced apoptosis
